Assays:
[1] = tested on: CYP-induced alopecia mice; experiment: Skin monitoring of hair growth with a digital dermatoscope in CYP-induced alopecia mice; assay type: in vivo, C57BL/6J mice; settings: topical, all concentrations of decursin (1, 10, 100 μM) or 0.1% DEX, FIG. 1
Procedure: (§1) All animal testing procedures were approved by the Laboratory Animal Care and Use Committee of Kyung Hee University (KHUASP(SE)-13-046). 5-week-old male C57BL/6J mice were purchased from Raonbio Co., Ltd. (Yongin, Korea). All mice were kept in plastic cages at 22±1° C. under 50±5% humidity with 12 hours of light-dark cycles. After 1 week of adaptation, mice were randomly assigned to 6 groups: (1) CTR, normal control group, (2) CYP, cyclophosphamide-induced alopecia group, (3) DEX, dexamethasone (DEX) treated in CYP-induced alopecia mice as positive controls, (4) D1, 1 μM decursin treated in CYP-induced alopecia mice, (5) D10, 10 μM decursin treated in CYP-induced alopecia mice, and (6) D100, 100 μM decursin treated in CYP-induced alopecia mice.
(§2) To synchronize the phases of the hair growth cycle, the dark hairs on the dorsal skin of all mice except the CTR group were shaved on day 0 using a shaving cream. 9 days later, 150 mg/kg of CYP (Sigma-Aldrich, MO, USA) was dissolved in saline and injected one time intraperitoneally into all mice except the CTR group. Injection of CYP induced the stage of hair follicles to turn into dystrophic catagen. From day 9 to day 16, 100 μL of 1, 10 and 100 μM decursin (Sigma-Aldrich) in saline containing 0.1% dimethyl sulfoxide was topically treated onto the shaved dorsal skin once a day. […]

[2] = tested on: hair follicles of dorsal skin tissues; experiment: Histological analysis (H&E) of dorsal skin hair follicles in CYP-induced alopecia mice; assay type: in vivo, C57BL/6J mice; settings: topical decursin, FIG. 2
Procedure: as §1, §2

[3] = tested on: keratinocyte growth factor (KGF); experiment: Immunofluorescence assay of KGF+ expression in dorsal skin tissue of CYP-induced alopecia mice; assay type: in vivo, C57BL/6J mice; settings: CIA mice, FIG. 3
Procedure: as §1
To synchronize the phases of the hair growth cycle, the dark hairs on the dorsal skin of all mice except the CTR group were shaved on day 0 using a shaving cream. 9 days later, 150 mg/kg of CYP (Sigma-Aldrich, MO, USA) was dissolved in saline and injected one time intraperitoneally into all mice except the CTR group. Injection of CYP induced the stage of hair follicles to turn into dystrophic catagen. From day 9 to day 16, 100 μL of 1, 10 and 100 μM decursin (Sigma-Aldrich) in saline containing 0.1% dimethyl sulfoxide was topically treated onto the shaved dorsal skin once a day. As a positive control, 0.1% DEX was administered topically to the shaved area on days 1, 3, 5, 7, and 9 to 16. Physiological saline was treated to the CTR and CYP groups during the experiment. […] on day 17, all mice were sacrificed under anesthesia.
Paraffin tissue sections were hydrated with xylene and ethanol, followed by blocking with 1% bovine serum albumin (BSA). The slides were incubated overnight at 4° C. with primary anti-rabbit keratinocyte growth factor (KGF) antibody. Secondary HRP-conjugated fluorescent antibody was treated onto tissue slides for 1 hour at room temperature.

[4] = tested on: keratinocyte growth factor (KGF); experiment: Immunoblotting of KGF protein expression in skin tissues of CYP-induced alopecia mice; assay type: in vivo, C57BL/6J mice; settings: CIA mice; 100 μM decursin topical; FIG. 4
caspase-3 = experiment: Immunoblotting of caspase-3 in TNF-α-stimulated HaCaT keratinocytes; assay type: cell-based, Human; settings: HaCaT cells; 10 nM decursin; 100 ng/mL TNF-α, 24 hours; FIG. 5
Procedure: (§3) Human keratinocyte HaCaT cells were grown at 37° C. under atmosphere with 95% humidity in the presence of 5% CO2, in Dulbecco's modified Eagle's medium (DMEM, Gibco; Thermo Fisher Scientific, Inc., Waltham, Mass., USA) supplemented with 10% v/v fetal bovine serum (FBS, Gibco), 2 mM glutamine, 100 IU/ml penicillin, and 100 μg/mL of streptomycin (Gibco). HaCaT cells were dispensed into 6-well plates by 1×10^6 cells/wells. After stabilization, 1 μM DEX and 0.1, 1, and 10 nM decursin were treated in the presence of 100 ng/mL of TNF-α for 24 hours.
(§4) Proteins were extracted from the collected skin tissues and HaCaT cells using RIPA lysis buffer (Tech & Innovation, Gangwon, Korea) containing a protease inhibitor cocktail (Roche, Hoffmann, USA). Lysates were quantified by the Bradford method and denatured with dodecyl sulfate buffer at 98° C. for 5 minutes. Proteins were electrophoresed onto a polyvinylidene fluoride membrane. The membranes were incubated continuously with primary anti-caspase-3, -7, and -8, followed with secondary HRP-conjugated anti-rabbit and anti-mouse antibodies.

caspase-7 = experiment: Immunoblotting of caspase-7 in TNF-α-stimulated HaCaT keratinocytes; assay type: cell-based, Human; settings: HaCaT cells; 10 nM decursin; 100 ng/mL TNF-α, 24 hours; FIG. 5
Procedure: as §3, §4

caspase-8 = experiment: Immunoblotting of caspase-8 in TNF-α-stimulated HaCaT keratinocytes; assay type: cell-based, Human; settings: HaCaT cells; 10 nM decursin; 100 ng/mL TNF-α, 24 hours; FIG. 5
Procedure: as §3, §4

PI3K = experiment: Expression of PI3K in decursin-treated keratinocytes; assay type: cell-based, Human; settings: TNF-α
AKT = experiment: Expression of AKT in decursin-treated keratinocytes; assay type: cell-based, Human; settings: TNF-α
ERK = experiment: Expression of ERK in decursin-treated keratinocytes; assay type: cell-based, Human; settings: TNF-α
p38 = experiment: Expression of p38 in decursin-treated keratinocytes; assay type: cell-based, Human; settings: TNF-α

Q: What does the source list for `CC(C)=CC(=O)O[C@H]1Cc2cc3ccc(=O)oc3cc2OC1(C)C` [decursin]?
A: hair growth on the dorsal side (dermatoscope), compared to CYP group [1]: hair growth was observed; hair follicle cycle stage (histology) [2]: hair follicles were in the anagen; shape of the ampulla of hair follicles, compared to CYP group [2]: normalized; KGF+ expression in the skin tissue (immunofluorescence) ([3]; 1 μM decursin topical): increased; KGF+ expression in the skin tissue (immunofluorescence) ([3]; 10 μM decursin topical): increased; KGF+ expression in the skin tissue (immunofluorescence) ([3]; 100 μM decursin topical): increased; protein expression of KGF in skin tissues [4]: significantly increased; rate of decrease of TNF-α-induced caspase-3 protein level (caspase-3): 30.41%; rate of decrease of TNF-α-induced caspase-7 protein level (caspase-7): 48.27%; rate of decrease of TNF-α-induced caspase-8 protein level (caspase-8): 41.07%; expression of PI3K (PI3K): suppression; expression of AKT (AKT): suppression; expression of ERK (ERK): suppression; expression of p38 (p38): suppression

Reference: patent publication US20230157993A1, “PHARMACEUTICAL COMPOSITION FOR TREATING OR PREVENTING ALOPECIA INCLUDING DECURSIN” (University-Industry Cooperation Group of Kyung Hee …, priority 2021, published 2023)
